Results from PubChem BioAssay (NCI).
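Step 1: Grow cells in 96-well plates. Step 2: Expose to compound for 48 hours at 5 concentrations. Step 3: Interpolate endpoints linearly; if unreached, use highest concentration. GI50 marks 50% less growth. TGI: total growth inhibition.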

Tests used:
Experiment in all cases: growth of human tumour cells (NCI), 48 h
CAKI-1 renal = tested on: CAKI-1 renal
786-0 renal = tested on: 786-0 renal
SK-MEL-5 melanoma = tested on: SK-MEL-5 melanoma
MDA-MB-231 breast = tested on: MDA-MB-231 breast
HCC-2998 colon = tested on: HCC-2998 colon
HOP-92 NSCLC = tested on: HOP-92 NSCLC
HCT-15 colon = tested on: HCT-15 colon
OVCAR-4 ovarian = tested on: OVCAR-4 ovarian
MCF7 breast = tested on: MCF7 breast
A549 NSCLC = tested on: A549 NSCLC
SK-OV-3 ovarian = tested on: SK-OV-3 ovarian
KM12 colon = tested on: KM12 colon
NCI-H460 lung = tested on: NCI-H460 lung
CCRF-CEM leukemia = tested on: CCRF-CEM leukemia
SN12C renal = tested on: SN12C renal
SF-268 CNS = tested on: SF-268 CNS
SF-539 CNS = tested on: SF-539 CNS
TK-10 renal = tested on: TK-10 renal
UACC-257 melanoma = tested on: UACC-257 melanoma
MALME-3M melanoma = tested on: MALME-3M melanoma
NCI-H522 lung = tested on: NCI-H522 lung
MOLT-4 leukemia = tested on: MOLT-4 leukemia
UACC-62 melanoma = tested on: UACC-62 melanoma
NCI-H226 lung = tested on: NCI-H226 lung
A498 renal = tested on: A498 renal
LOX IMVI melanoma = tested on: LOX IMVI melanoma
T-47D breast = tested on: T-47D breast
BT-549 breast = tested on: BT-549 breast
SW-620 colon = tested on: SW-620 colon

Question: `Cc1ccc2c(NCCCN(C)C)c3c(C)nn(C)c3nc2c1` was tested. Which GI50 (CAKI-1 renal) did it give?
Answer: The GI50 was 3.04 µM.

Question: What about the TGI (CAKI-1 renal) of the same compound?
Answer: Its TGI is 38.1 µM.

Question: And the GI50 (786-0 renal)?
Answer: Its GI50 is 4.99 µM.

Question: What about the TGI (786-0 renal) of the same compound?
Answer: Its TGI is 26.5 µM.

Question: What about the GI50 (SK-MEL-5 melanoma) of the same compound?
Answer: The GI50 was 3.66 µM.

Question: And the TGI (SK-MEL-5 melanoma)?
Answer: The TGI was 14.3 µM.

Question: And the GI50 (MDA-MB-231 breast)?
Answer: The GI50 was 3.86 µM.

Question: And the TGI (MDA-MB-231 breast)?
Answer: Its TGI is 19.4 µM.

Question: What about the GI50 (HCC-2998 colon) of the same compound?
Answer: The GI50 was 5.83 µM.

Question: And the TGI (HCC-2998 colon)?
Answer: Its TGI is 22.4 µM.

Question: And the GI50 (HOP-92 NSCLC)?
Answer: Its GI50 is 1.6 µM.

Question: And the TGI (HOP-92 NSCLC)?
Answer: Its TGI is 5.99 µM.

Question: And the GI50 (HCT-15 colon)?
Answer: Its GI50 is 2.59 µM.

Question: What about the TGI (HCT-15 colon) of the same compound?
Answer: The TGI was 18.3 µM.

Question: And the GI50 (OVCAR-4 ovarian)?
Answer: The GI50 was 3.06 µM.

Question: And the TGI (OVCAR-4 ovarian)?
Answer: The TGI was 16.1 µM.

Question: And the GI50 (MCF7 breast)?
Answer: Its GI50 is 2.53 µM.

Question: And the TGI (MCF7 breast)?
Answer: Its TGI is 7.04 µM.

Question: And the GI50 (A549 NSCLC)?
Answer: The GI50 was 3.45 µM.

Question: And the TGI (A549 NSCLC)?
Answer: The TGI was 25.1 µM.

Question: And the GI50 (SK-OV-3 ovarian)?
Answer: The GI50 was 7.26 µM.

Question: And the TGI (SK-OV-3 ovarian)?
Answer: The TGI was 68.7 µM.

Question: And the GI50 (KM12 colon)?
Answer: The GI50 was 4.55 µM.

Question: And the TGI (KM12 colon)?
Answer: Its TGI is 31.8 µM.

Question: What about the GI50 (NCI-H460 lung) of the same compound?
Answer: Its GI50 is 2.96 µM.

Question: And the TGI (NCI-H460 lung)?
Answer: The TGI was 10.2 µM.

Question: What about the GI50 (CCRF-CEM leukemia) of the same compound?
Answer: Its GI50 is 5.09 µM.

Question: What about the TGI (CCRF-CEM leukemia) of the same compound?
Answer: The TGI was 88.8 µM.

Question: And the GI50 (SN12C renal)?
Answer: Its GI50 is 3.52 µM.

Question: What about the TGI (SN12C renal) of the same compound?
Answer: Its TGI is 29.9 µM.

Question: What about the GI50 (SF-268 CNS) of the same compound?
Answer: The GI50 was 4.18 µM.

Question: And the TGI (SF-268 CNS)?
Answer: The TGI was 23.9 µM.

Question: What about the GI50 (SF-539 CNS) of the same compound?
Answer: Its GI50 is 4.7 µM.

Question: What about the TGI (SF-539 CNS) of the same compound?
Answer: The TGI was 19.6 µM.

Question: What about the GI50 (TK-10 renal) of the same compound?
Answer: Its GI50 is 2.89 µM.

Question: What about the TGI (TK-10 renal) of the same compound?
Answer: Its TGI is 14 µM.

Question: And the GI50 (UACC-257 melanoma)?
Answer: Its GI50 is 3.9 µM.

Question: What about the TGI (UACC-257 melanoma) of the same compound?
Answer: Its TGI is 14.4 µM.

Question: What about the GI50 (MALME-3M melanoma) of the same compound?
Answer: The GI50 was 4.97 µM.

Question: And the TGI (MALME-3M melanoma)?
Answer: The TGI was 22 µM.

Question: And the GI50 (NCI-H522 lung)?
Answer: The GI50 was 2.76 µM.

Question: And the TGI (NCI-H522 lung)?
Answer: The TGI was 12.7 µM.

Question: What about the GI50 (MOLT-4 leukemia) of the same compound?
Answer: Its GI50 is 5.11 µM.

Question: And the TGI (MOLT-4 leukemia)?
Answer: Its TGI is 33.1 µM.

Question: And the GI50 (UACC-62 melanoma)?
Answer: The GI50 was 3.9 µM.

Question: And the TGI (UACC-62 melanoma)?
Answer: Its TGI is 16.4 µM.

Question: What about the GI50 (NCI-H226 lung) of the same compound?
Answer: The GI50 was 3.34 µM.

Question: And the TGI (NCI-H226 lung)?
Answer: Its TGI is 27 µM.

Question: What about the GI50 (A498 renal) of the same compound?
Answer: The GI50 was 1.8 µM.

Question: And the TGI (A498 renal)?
Answer: The TGI was 7.86 µM.

Question: What about the GI50 (LOX IMVI melanoma) of the same compound?
Answer: Its GI50 is 2.22 µM.

Question: What about the TGI (LOX IMVI melanoma) of the same compound?
Answer: The TGI was 5.64 µM.

Question: What about the GI50 (T-47D breast) of the same compound?
Answer: Its GI50 is 9.5 µM.

Question: And the TGI (T-47D breast)?
Answer: Its TGI is 98.8 µM.

Question: What about the GI50 (BT-549 breast) of the same compound?
Answer: The GI50 was 13.7 µM.

Question: And the TGI (BT-549 breast)?
Answer: The TGI was 31 µM.

Question: What about the GI50 (SW-620 colon) of the same compound?
Answer: The GI50 was 2.96 µM.
